From PMC10504544, “1-deoxy-D-xylulose-5-phosphate synthase from Pseudomonas aeruginosa and Klebsiella pneumoniae reveals conformational changes upon cofactor binding” (The Journal of Biological Chemistry, 2023)
pIC50: −log10 of the molar value.

Assays:
Format in all cases: biochemical
[1] = target: T1, 1-deoxy-D-xylulose-5-phosphate synthase (paDXPS) (Pseudomonas aeruginosa, UniProt B7V7R4, DEL206-245/INS205GGGGGG); assay: co-crystal structure ([…] Å); coupled spectrophotometric inhibition assay
T1 construct: gene dxs; truncated paDXPS; residues 206 to 245 replaced with a six glycine unit

[2] = target: T2, 1-deoxy-D-xylulose-5-phosphate synthase (kpDXPS) (Klebsiella pneumoniae, UniProt A6T5F3, DEL197-240/INS196GGGGGG); assay: IspC-coupled spectrophotometric assay
T2 construct: gene dxs; truncated kpDXPS; residues 197 to 240 replaced with a six glycine unit

[3] = target: T3, 1-deoxy-D-xylulose-5-phosphate synthase (paDXPS) (Pseudomonas aeruginosa, UniProt B7V7R4, DEL206-245/INS205GGGGGG); assay: IspC-coupled spectrophotometric assay; mode-of-inhibition study
T3 construct: gene dxs
T3 sequence (B7V7R4 1-627 INS205GGGGGG/DEL206-245): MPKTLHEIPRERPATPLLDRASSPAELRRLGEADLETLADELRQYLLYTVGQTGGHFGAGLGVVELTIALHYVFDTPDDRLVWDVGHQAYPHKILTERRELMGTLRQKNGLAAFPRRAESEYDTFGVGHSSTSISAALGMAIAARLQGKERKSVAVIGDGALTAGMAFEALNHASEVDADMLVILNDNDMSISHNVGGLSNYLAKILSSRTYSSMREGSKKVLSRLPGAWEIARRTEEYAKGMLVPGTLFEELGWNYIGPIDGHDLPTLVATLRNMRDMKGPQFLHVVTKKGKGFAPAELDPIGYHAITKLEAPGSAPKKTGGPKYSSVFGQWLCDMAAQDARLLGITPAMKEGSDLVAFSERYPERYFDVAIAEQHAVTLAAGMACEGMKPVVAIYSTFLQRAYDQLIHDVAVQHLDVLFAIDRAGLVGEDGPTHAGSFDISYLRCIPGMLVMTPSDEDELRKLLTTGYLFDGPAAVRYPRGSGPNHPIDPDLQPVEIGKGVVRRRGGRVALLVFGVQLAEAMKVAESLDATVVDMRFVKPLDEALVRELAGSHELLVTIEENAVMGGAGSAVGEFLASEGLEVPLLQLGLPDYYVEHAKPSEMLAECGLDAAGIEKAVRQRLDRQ

T2 sequence (A6T5F3 whole entry, stated change not applied, the tested form may be a part): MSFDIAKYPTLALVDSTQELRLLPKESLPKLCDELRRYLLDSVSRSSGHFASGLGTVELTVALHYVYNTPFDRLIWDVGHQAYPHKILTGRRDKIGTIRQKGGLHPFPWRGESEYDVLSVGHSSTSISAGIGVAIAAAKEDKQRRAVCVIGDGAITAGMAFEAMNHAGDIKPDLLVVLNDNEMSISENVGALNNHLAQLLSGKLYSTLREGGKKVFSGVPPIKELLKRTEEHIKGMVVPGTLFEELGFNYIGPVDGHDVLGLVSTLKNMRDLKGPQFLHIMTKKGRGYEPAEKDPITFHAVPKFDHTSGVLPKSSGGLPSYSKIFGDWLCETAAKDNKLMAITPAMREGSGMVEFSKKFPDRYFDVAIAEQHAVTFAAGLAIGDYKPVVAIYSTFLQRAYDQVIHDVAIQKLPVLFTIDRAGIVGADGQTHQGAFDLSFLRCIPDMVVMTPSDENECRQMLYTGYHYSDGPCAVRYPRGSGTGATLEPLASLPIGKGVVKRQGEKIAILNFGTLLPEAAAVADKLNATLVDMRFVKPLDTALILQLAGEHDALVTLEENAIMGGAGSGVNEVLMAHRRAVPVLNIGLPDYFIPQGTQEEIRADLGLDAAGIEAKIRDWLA

Compound `Cc1ncc(Cc2cccc(CCO)c2)c(N)n1` [2-{3-[(4-Amino-2-Methylpyrimidin-5-Yl)methyl]phenyl}ethanol] has a pIC50 [1] of 3.71 and a pIC50 [2] of 4.03.
`O=C(O)C(=O)CF` [fluoropyruvate] showed a pIC50 [3] of ~4.57.
